Reference: PubChem BioAssay (NCI)
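The compound was tested at five concentrations on cells cultured in 96-well plates, with a 48-hour exposure period. TGI marks complete inhibition of growth.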

Experiments:
Assay in all cases: inhibition of tumour cell growth, NCI panel, 48 h
[1] = test system: SF-268 CNS
[2] = test system: K-562 leukemia
[3] = test system: PC-3 prostate
[4] = test system: SNB-75 CNS
[5] = test system: SF-539 CNS
[6] = test system: SK-MEL-5 melanoma
[7] = test system: LOX IMVI melanoma
[8] = test system: U251 CNS
[9] = test system: UACC-62 melanoma
[10] = test system: CCRF-CEM leukemia
[11] = test system: COLO 205 colon
[12] = test system: HL-60(TB) leukemia
[13] = test system: BT-549 breast
[14] = test system: SK-MEL-28 melanoma
[15] = test system: MDA-MB-435
[16] = test system: HCC-2998 colon
[17] = test system: UACC-257 melanoma
[18] = test system: T-47D breast
[19] = test system: 786-0 renal
[20] = test system: MDA-N
[21] = test system: TK-10 renal
[22] = test system: HCT-116 colon
[23] = test system: ACHN renal
[24] = test system: SN12C renal
[25] = test system: SNB-19 CNS
[26] = test system: KM12 colon
[27] = test system: RPMI-8226 leukemia
[28] = test system: HCT-15 colon
[29] = test system: M14 melanoma
[30] = test system: OVCAR-3 ovarian
[31] = test system: SF-295 CNS
[32] = test system: SK-MEL-2 melanoma
[33] = test system: MDA-MB-231 breast
[34] = test system: NCI-H460 lung
[35] = test system: CAKI-1 renal
[36] = test system: SR leukemia
[37] = test system: A498 renal
[38] = test system: NCI/ADR-RES ovarian
[39] = test system: UO-31 renal
[40] = test system: SW-620 colon
[41] = test system: DU-145 prostate
[42] = test system: IGROV1 ovarian
[43] = test system: MCF7 breast
[44] = test system: HS 578T breast
[45] = test system: HOP-92 NSCLC
[46] = test system: OVCAR-4 ovarian
[47] = test system: OVCAR-5 ovarian
[48] = test system: HOP-62 NSCLC
[49] = test system: OVCAR-8 ovarian
[50] = test system: EKVX NSCLC
[51] = test system: SK-OV-3 ovarian
[52] = test system: HT29 colon
[53] = test system: A549 NSCLC
[54] = test system: MOLT-4 leukemia
[55] = test system: NCI-H226 lung
[56] = test system: RXF 393 renal
[57] = test system: NCI-H522 lung
[58] = test system: NCI-H23 lung
[59] = test system: MALME-3M melanoma

Compound: O=C(c1ccccc1)c1ccc(N2C(=O)/C(=C/Cc3ccco3)N=C2c2ccccc2)c(N2C(=O)/C(=C/Cc3ccco3)N=C2c2ccccc2)c1
- TGI [1]: > 100 µM
- TGI [2]: > 100 µM
- TGI [3]: > 100 µM
- TGI [4]: 66.9 µM
- TGI [5]: 32.7 µM
- TGI [6]: 88.5 µM
- TGI [7]: 58.3 µM
- TGI [8]: 43.8 µM
- TGI [9]: > 100 µM
- TGI [10]: 53.5 µM
- TGI [11]: > 100 µM
- TGI [12]: 45.7 µM
- TGI [13]: > 100 µM
- TGI [14]: > 100 µM
- TGI [15]: 94.9 µM
- TGI [16]: > 100 µM
- TGI [17]: > 100 µM
- TGI [18]: > 100 µM
- TGI [19]: > 100 µM
- TGI [20]: > 100 µM
- TGI [21]: > 100 µM
- TGI [22]: > 100 µM
- TGI [23]: > 100 µM
- TGI [24]: > 100 µM
- TGI [25]: > 100 µM
- TGI [26]: > 100 µM
- TGI [27]: 91.3 µM
- TGI [28]: > 100 µM
- TGI [29]: > 100 µM
- TGI [30]: 46.7 µM
- TGI [31]: > 100 µM
- TGI [32]: 58.6 µM
- TGI [33]: > 100 µM
- TGI [34]: > 100 µM
- TGI [35]: > 100 µM
- TGI [36]: > 100 µM
- TGI [37]: > 100 µM
- TGI [38]: > 100 µM
- TGI [39]: > 100 µM
- TGI [40]: > 100 µM
- TGI [41]: 96.6 µM
- TGI [42]: > 100 µM
- TGI [43]: > 100 µM
- TGI [44]: 64.9 µM
- TGI [45]: > 100 µM
- TGI [46]: > 100 µM
- TGI [47]: > 100 µM
- TGI [48]: > 100 µM
- TGI [49]: > 100 µM
- TGI [50]: > 100 µM
- TGI [51]: 83 µM
- TGI [52]: > 100 µM
- TGI [53]: > 100 µM
- TGI [54]: 56.6 µM

Compound: OCc1cc2c(ccc3sc4ccc5sc6ccc7ncccc7c6c5c4c32)s1
- TGI [2]: > 100 µM
- TGI [3]: 43.9 µM
- TGI [4]: 22.8 µM
- TGI [5]: 32.4 µM
- TGI [6]: 11.8 µM
- TGI [7]: 26.6 µM
- TGI [8]: > 100 µM
- TGI [9]: 38.6 µM
- TGI [10]: > 100 µM
- TGI [11]: 21.3 µM
- TGI [55]: > 100 µM
- TGI [12]: 67.1 µM
- TGI [13]: 38.6 µM
- TGI [14]: > 100 µM
- TGI [15]: > 100 µM
- TGI [17]: 37.2 µM
- TGI [18]: 24.9 µM
- TGI [19]: 15.1 µM
- TGI [20]: 23.9 µM
- TGI [21]: > 100 µM
- TGI [22]: 23 µM
- TGI [23]: > 100 µM
- TGI [24]: 26.8 µM
- TGI [25]: 28.7 µM
- TGI [26]: 20.4 µM
- TGI [27]: 96.2 µM
- TGI [28]: 33.6 µM
- TGI [30]: > 100 µM
- TGI [31]: 27.7 µM
- TGI [32]: 31.3 µM
- TGI [33]: 18.2 µM
- TGI [34]: 26.3 µM
- TGI [35]: 36.6 µM
- TGI [36]: > 100 µM
- TGI [37]: > 100 µM
- TGI [38]: 82.5 µM
- TGI [39]: 7.25 µM
- TGI [40]: > 100 µM
- TGI [41]: 33.6 µM
- TGI [56]: 28.9 µM
- TGI [42]: 26.4 µM
- TGI [57]: 27.6 µM
- TGI [43]: 42.2 µM
- TGI [44]: 31.9 µM
- TGI [45]: > 100 µM
- TGI [46]: 89.2 µM
- TGI [47]: 33 µM
- TGI [48]: 28.6 µM
- TGI [49]: 62.1 µM
- TGI [50]: 29.7 µM
- TGI [51]: 39.9 µM
- TGI [52]: 39.7 µM
- TGI [53]: 31.1 µM
- TGI [54]: 48.4 µM

Compound: COc1ccc(OC)c(CSc2ccc(OC)c(OC)c2)c1
- TGI [1]: > 100 µM
- TGI [2]: > 100 µM
- TGI [3]: > 100 µM
- TGI [4]: > 100 µM
- TGI [58]: > 100 µM
- TGI [5]: > 100 µM
- TGI [6]: > 100 µM
- TGI [7]: > 100 µM
- TGI [8]: > 100 µM
- TGI [9]: > 100 µM
- TGI [10]: > 100 µM
- TGI [11]: > 100 µM
- TGI [55]: > 100 µM
- TGI [12]: > 100 µM
- TGI [13]: > 100 µM
- TGI [14]: > 100 µM
- TGI [15]: > 100 µM
- TGI [16]: > 100 µM
- TGI [17]: > 100 µM
- TGI [18]: > 30.5 µM
- TGI [19]: > 100 µM
- TGI [20]: > 100 µM
- TGI [21]: > 100 µM
- TGI [22]: > 100 µM
- TGI [23]: > 100 µM
- TGI [24]: > 100 µM
- TGI [25]: > 100 µM
- TGI [26]: > 100 µM
- TGI [27]: > 100 µM
- TGI [28]: > 100 µM
- TGI [29]: > 100 µM
- TGI [30]: > 100 µM
- TGI [31]: > 100 µM
- TGI [32]: > 100 µM
- TGI [33]: > 100 µM
- TGI [34]: > 100 µM
- TGI [35]: > 100 µM
- TGI [59]: > 100 µM
- TGI [36]: > 100 µM
- TGI [37]: 99.3 µM
- TGI [38]: > 100 µM
- TGI [39]: > 100 µM
- TGI [40]: > 100 µM
- TGI [41]: > 100 µM
- TGI [56]: > 100 µM
- TGI [42]: > 100 µM
- TGI [57]: > 100 µM
- TGI [43]: > 100 µM
- TGI [44]: > 100 µM
- TGI [45]: 98.3 µM
- TGI [46]: > 100 µM
- TGI [47]: > 100 µM
- TGI [48]: > 100 µM
- TGI [49]: > 100 µM
- TGI [50]: > 100 µM
- TGI [51]: > 100 µM
- TGI [52]: > 100 µM
- TGI [53]: > 100 µM
- TGI [54]: > 100 µM

Compound: COc1cc(C(=O)/C=C/c2ccc(OCCSCCCCCCCCCCSCCOc3ccc(/C=C/C(=O)c4cc(OC)c(OC)c(OC)c4)cc3)cc2)cc(OC)c1OC
- TGI [1]: > 100 µM
- TGI [2]: > 100 µM
- TGI [3]: > 100 µM
- TGI [4]: > 100 µM
- TGI [58]: > 100 µM
- TGI [5]: > 100 µM
- TGI [6]: > 100 µM
- TGI [7]: > 100 µM
- TGI [8]: > 100 µM
- TGI [9]: > 100 µM
- TGI [10]: > 100 µM
- TGI [11]: > 100 µM
- TGI [12]: > 100 µM
- TGI [13]: > 100 µM
- TGI [14]: > 100 µM
- TGI [15]: > 100 µM
- TGI [16]: > 100 µM
- TGI [18]: > 100 µM
- TGI [19]: > 100 µM
- TGI [20]: > 100 µM
- TGI [21]: > 100 µM
- TGI [22]: > 100 µM
- TGI [23]: > 100 µM
- TGI [24]: > 100 µM
- TGI [25]: > 100 µM
- TGI [26]: > 100 µM
- TGI [27]: > 100 µM
- TGI [28]: > 100 µM
- TGI [29]: > 100 µM
- TGI [30]: > 100 µM
- TGI [31]: > 100 µM
- TGI [32]: > 100 µM
- TGI [33]: > 100 µM
- TGI [35]: > 100 µM
- TGI [59]: > 100 µM
- TGI [36]: > 100 µM
- TGI [37]: > 100 µM
- TGI [38]: > 100 µM
- TGI [39]: > 100 µM
- TGI [40]: > 100 µM
- TGI [41]: > 100 µM
- TGI [56]: > 100 µM
- TGI [42]: > 100 µM
- TGI [57]: > 100 µM
- TGI [43]: > 100 µM
- TGI [44]: > 100 µM
- TGI [45]: > 100 µM
- TGI [47]: > 100 µM
- TGI [48]: > 100 µM
- TGI [49]: > 100 µM
- TGI [50]: > 100 µM
- TGI [52]: > 100 µM
- TGI [53]: > 100 µM
- TGI [54]: > 100 µM
